Source: US8957096B2, “Herbicidally active oxime-ether-substituted benzoylamides” (Bayer Intellectual Property GmbH, priority 2011, dated 2015)

Experiments:
Type in all cases: in vivo
[1] = system: Stellaria media; assay: Post-emergence herbicidal action against harmful plants; details: 504 h, application rate 80 g/ha, assessed visually after about 3 weeks vs untreated controls, read-out: herbicidal action in percent (%)
Method: (§1) 2. Post-Emergence Herbicidal Action Against Harmful Plants Seeds of monocotyledonous and dicotyledonous weed and crop plants are placed in sandy loam in wood-fiber pots, covered with soil and cultivated in a greenhouse under good growth conditions. 2 to 3 weeks after sowing, the test plants are treated at the one-leaf stage. The inventive compounds formulated in the form of wettable powders (WP) or as emulsion concentrates (EC) are then sprayed onto the green parts of the plants as an aqueous suspension or emulsion at a water application rate of 600 to 800 l/ha (converted) with addition of 0.2% wetting agent. After the test plants have been left to stand in the greenhouse under optimal growth conditions for about 3 weeks, the action of the formulations is assessed visually in comparison to untreated controls (herbicidal action in percent (%): 100% activity=the plants have died, 0% activity=like control plants). Here, the compounds Nos. 1-001, 1-002, 1-004, 1-005, 1-007, 1-008, 1-014, 1-015, 1-017, 1-018, 1-020, 1-033, 1-040, 1-041, 1-043, 1-044, 1-046, 1-047, 1-053, 1-054, 1-056, 1-057, 1-059, 1-060, 1-079, 1-080, 1-082, 1-083, 1-086, 1-092, 1-093, 1-095, 1-096, 1-098, 1-099, 2-015, 3-014, 3-015, 3-017, 3-018, 3-020, 5-082, 5-095, 6-017, 7-017 and 8-014 each show, at an application rate of 80 g/ha, an activity of at least 80% against Abuthilon theophrasti, Amaranthus retroflexus and Stellaria media. The compounds Nos. 4-092, 4-093, 5-004, 5-017, 5-043 and 5-056 each show, at an application rate of 80 g/ha, an activity of at least 80% against Echinocloa crus galli, Pharbitis purpureum and Stellaria media.

[2] = system: Abuthilon theophrasti; assay: as above; details: 504 h, application rate 80 g/ha, assessed visually after about 3 weeks vs untreated controls, read-out: herbicidal action in percent (%)
Method: as §1

[3] = system: Amaranthus retroflexus; assay: as above; details: 504 h, application rate 80 g/ha, assessed visually after about 3 weeks vs untreated controls, read-out: herbicidal action in percent (%)
Method: as §1

[4] = system: Abuthilon theophrasti; assay: Pre-emergence herbicidal action against harmful plants; details: 504 h, application rate 320 g/ha, assessed visually after 3 weeks vs untreated controls, read-out: herbicidal activity in percent (%)
Description: (§2) 1. Pre-Emergence Herbicidal Action Against Harmful Plants Seeds of monocotyledonous and dicotyledonous weed plants and crop plants are placed in wood-fiber pots in sandy loam and covered with soil. The compounds according to the invention, formulated in the form of wettable powders (WP) or as emulsion concentrates (EC), are then applied as aqueous suspension or emulsion at a water application rate of 600 to 800 l/ha (converted) with the addition of 0.2% of wetting agent to the surface of the covering soil. After the treatment, the pots are placed in a greenhouse and kept under good growth conditions for the test plants. The damage to the test plants is assessed visually after a test period of 3 weeks by comparison with untreated controls (herbicidal activity in percent (%): 100% activity=the plants have died, 0% activity=like control plants). Here, the compounds Nos. 1-002, 1-004, 1-007, 1-008, 1-043, 1-044, 1-046, 1-047, 1-060, 1-079, 1-080, 1-082, 1-083, 1-085, 1-095, 1-096, 1-098, 1-099, 1-059, 2-015, 3-015, 3-018, 3-020, 4-001, 4-118, 5-004, 5-017, 5-043, 5-056, 5-082, 5-095, 6-017, 7-017, 8-017 and 8-014, for example, each show, at an application rate of 320 g/ha, an activity of at least 80% against Abuthilon theophrasti and Amaranthus retroflexus. The compounds Nos. 1-001, 1-005, 1-014, 1-015, 1-017, 1-018, 1-020, 1-033, 1-040, 1-041, 1-053, 1-054, 1-056, 1-057, 1-092, 1-093, 3-014, 3-015, 8-014, 8-017 and 8-015 each show, at an application rate of 320 g/ha, an activity of at least 80% against Setaria viridis and Stellaria media. The compounds Nos. 3-017, 4-092 and 6-004 show, at an application rate of 320 g/ha, an activity of at least 80% against Amaranthus retroflexus and Veronica persica.

[5] = system: Amaranthus retroflexus; assay: as above; details: 504 h, application rate 320 g/ha, assessed visually after 3 weeks vs untreated controls, read-out: herbicidal activity in percent (%)
Description: as §2

[6] = system: Setaria viridis; assay: as above; details: 504 h, application rate 320 g/ha, assessed visually after 3 weeks vs untreated controls, read-out: herbicidal activity in percent (%)
Description: as §2

[7] = system: Stellaria media; assay: as above; details: 504 h, application rate 320 g/ha, assessed visually after 3 weeks vs untreated controls, read-out: herbicidal activity in percent (%)
Description: as §2

CCO/N=C/c1c(S(C)(=O)=O)ccc(C(=O)Nc2ncnn2C)c1Cl [2-015]
≥ 80%: pest or weed control at 80 g/ha [1] | pest or weed control at 80 g/ha [2] | pest or weed control at 80 g/ha [3] | pest or weed control at 320 g/ha [4] | pest or weed control at 320 g/ha [5]

CCCn1nnnc1NC(=O)c1ccc(Cl)c(/C=N/OC)c1Cl [1-079]
≥ 80%: pest or weed control at 80 g/ha [1] | pest or weed control at 80 g/ha [2] | pest or weed control at 80 g/ha [3] | pest or weed control at 320 g/ha [4] | pest or weed control at 320 g/ha [5]

CCCn1nnnc1NC(=O)c1ccc(S(C)(=O)=O)c(/C=N/OC)c1Cl [1-092]
≥ 80%: pest or weed control at 80 g/ha [1] | pest or weed control at 80 g/ha [2] | pest or weed control at 80 g/ha [3] | pest or weed control at 320 g/ha [6] | pest or weed control at 320 g/ha [7]

CC(C)=NOCc1c(S(C)(=O)=O)ccc(C(=O)Nc2ncnn2C)c1Cl [6-017, 2-chloro-4-(methylsulfonyl)-N-(1-methyl-1H-1,2,4-triazol-5-yl)-3-{[(propan-2-ylideneamino)oxy]methyl}benzamide]
≥ 80%: pest or weed control at 80 g/ha [1] | pest or weed control at 80 g/ha [2] | pest or weed control at 80 g/ha [3] | pest or weed control at 320 g/ha [4] | pest or weed control at 320 g/ha [5]

CCO/N=C/c1c(Cl)ccc(C(=O)Nc2nnnn2CC)c1Cl [1-041]
≥ 80%: pest or weed control at 80 g/ha [1] | pest or weed control at 80 g/ha [2] | pest or weed control at 80 g/ha [3] | pest or weed control at 320 g/ha [6] | pest or weed control at 320 g/ha [7]

CO/N=C/c1c(Cl)ccc(C(=O)Nc2nnc(C)o2)c1Cl [4-001]
≥ 80%: pest or weed control at 320 g/ha [4] | pest or weed control at 320 g/ha [5]

CC(C)=NOCc1c(Cl)ccc(C(=O)Nc2ncnn2C)c1Cl [6-004]
≥ 80%: pest or weed control at 320 g/ha [5]

CCn1nnnc1NC(=O)c1ccc(Cl)c(/C=N/OC)c1Cl [1-040]
≥ 80%: pest or weed control at 80 g/ha [1] | pest or weed control at 80 g/ha [2] | pest or weed control at 80 g/ha [3] | pest or weed control at 320 g/ha [6] | pest or weed control at 320 g/ha [7]

CCO/N=C/c1c(S(C)(=O)=O)ccc(C(=O)Nc2nnnn2CC)c1Cl [1-054]
≥ 80%: pest or weed control at 80 g/ha [1] | pest or weed control at 80 g/ha [2] | pest or weed control at 80 g/ha [3] | pest or weed control at 320 g/ha [6] | pest or weed control at 320 g/ha [7]

CCn1nnnc1NC(=O)c1ccc(S(C)(=O)=O)c(CON=C(C)C)c1Cl [5-056]
≥ 80%: pest or weed control at 80 g/ha [1] | pest or weed control at 320 g/ha [4] | pest or weed control at 320 g/ha [5]

CO/N=C/c1c(S(C)(=O)=O)ccc(C(=O)Nc2nnnn2C)c1Cl [1-014]
≥ 80%: pest or weed control at 80 g/ha [1] | pest or weed control at 80 g/ha [2] | pest or weed control at 80 g/ha [3] | pest or weed control at 320 g/ha [6] | pest or weed control at 320 g/ha [7]

CO/N=C/c1c(Cl)ccc(C(=O)Nc2nnnn2C)c1Cl [1-001]
≥ 80%: pest or weed control at 80 g/ha [1] | pest or weed control at 80 g/ha [2] | pest or weed control at 80 g/ha [3] | pest or weed control at 320 g/ha [6] | pest or weed control at 320 g/ha [7]

C#CCON=Cc1c(S(C)(=O)=O)ccc(C(=O)Nc2nnnn2CC)c1Cl [1-057, 2-chloro-N-(1-ethyl-1H-tetrazol-5-yl)-4-(methylsulfonyl)-3-{[(prop-2-yn-1-yloxy)imino]methyl}benzamide]
≥ 80%: pest or weed control at 80 g/ha [1] | pest or weed control at 80 g/ha [2] | pest or weed control at 80 g/ha [3] | pest or weed control at 320 g/ha [6] | pest or weed control at 320 g/ha [7]

CC(C)=NOCc1c(S(C)(=O)=O)ccc(C(=O)Nc2nnc(C)o2)c1Cl [8-017]
≥ 80%: pest or weed control at 320 g/ha [6] | pest or weed control at 320 g/ha [7] | pest or weed control at 320 g/ha [4] | pest or weed control at 320 g/ha [5]

CCO/N=C/c1c(Cl)ccc(C(=O)Nc2nnnn2C)c1Cl [1-002]
≥ 80%: pest or weed control at 80 g/ha [1] | pest or weed control at 80 g/ha [2] | pest or weed control at 80 g/ha [3] | pest or weed control at 320 g/ha [4] | pest or weed control at 320 g/ha [5]

CC(C)=NOCc1c(S(C)(=O)=O)ccc(C(=O)Nc2nnnn2C)c1Cl [5-017]
≥ 80%: pest or weed control at 80 g/ha [1] | pest or weed control at 320 g/ha [4] | pest or weed control at 320 g/ha [5]

CCO/N=C/c1c(S(C)(=O)=O)ccc(C(=O)Nc2nnnn2C)c1Cl [1-015]
≥ 80%: pest or weed control at 80 g/ha [1] | pest or weed control at 80 g/ha [2] | pest or weed control at 80 g/ha [3] | pest or weed control at 320 g/ha [6] | pest or weed control at 320 g/ha [7]

CCn1nnnc1NC(=O)c1ccc(Cl)c(CON=C(C)C)c1Cl [5-043]
≥ 80%: pest or weed control at 80 g/ha [1] | pest or weed control at 320 g/ha [4] | pest or weed control at 320 g/ha [5]

CCCn1nnnc1NC(=O)c1ccc(S(C)(=O)=O)c(/C=N/OCC)c1Cl [1-093]
≥ 80%: pest or weed control at 80 g/ha [1] | pest or weed control at 80 g/ha [2] | pest or weed control at 80 g/ha [3] | pest or weed control at 320 g/ha [6] | pest or weed control at 320 g/ha [7]

CCCn1nnnc1NC(=O)c1ccc(Cl)c(/C=N/OCC)c1Cl [1-080]
≥ 80%: pest or weed control at 80 g/ha [1] | pest or weed control at 80 g/ha [2] | pest or weed control at 80 g/ha [3] | pest or weed control at 320 g/ha [4] | pest or weed control at 320 g/ha [5]

CC(C)=NOCc1c(Cl)ccc(C(=O)Nc2nnnn2C)c1Cl [5-004]
≥ 80%: pest or weed control at 80 g/ha [1] | pest or weed control at 320 g/ha [4] | pest or weed control at 320 g/ha [5]

CCCn1nnnc1NC(=O)c1ccc(S(C)(=O)=O)c(CON=C(C)C)c1Cl [5-095]
≥ 80%: pest or weed control at 80 g/ha [1] | pest or weed control at 80 g/ha [2] | pest or weed control at 80 g/ha [3] | pest or weed control at 320 g/ha [4] | pest or weed control at 320 g/ha [5]

CCn1nnnc1NC(=O)c1ccc(S(C)(=O)=O)c(/C=N/OC)c1Cl [1-053]
≥ 80%: pest or weed control at 80 g/ha [1] | pest or weed control at 80 g/ha [2] | pest or weed control at 80 g/ha [3] | pest or weed control at 320 g/ha [6] | pest or weed control at 320 g/ha [7]

CCCn1nnnc1NC(=O)c1ccc(Cl)c(CON=C(C)C)c1Cl [5-082]
≥ 80%: pest or weed control at 80 g/ha [1] | pest or weed control at 80 g/ha [2] | pest or weed control at 80 g/ha [3] | pest or weed control at 320 g/ha [4] | pest or weed control at 320 g/ha [5]

C=NOCc1c(S(C)(=O)=O)ccc(C(=O)Nc2nnc(C)o2)c1Cl [8-014]
≥ 80%: pest or weed control at 80 g/ha [1] | pest or weed control at 80 g/ha [2] | pest or weed control at 80 g/ha [3] | pest or weed control at 320 g/ha [6] | pest or weed control at 320 g/ha [7] | pest or weed control at 320 g/ha [4] | pest or weed control at 320 g/ha [5]

CC=NOCc1c(S(C)(=O)=O)ccc(C(=O)Nc2nnc(C)o2)c1Cl [8-015]
≥ 80%: pest or weed control at 320 g/ha [6] | pest or weed control at 320 g/ha [7]

CC(C)=NOCc1c(S(C)(=O)=O)ccc(C(=O)Nc2nonc2C)c1Cl [7-017]
≥ 80%: pest or weed control at 80 g/ha [1] | pest or weed control at 80 g/ha [2] | pest or weed control at 80 g/ha [3] | pest or weed control at 320 g/ha [4] | pest or weed control at 320 g/ha [5]
